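Results reflect a 48-hour exposure of cells in 96-well plates to compound at five concentrations. The concentration for 50% growth inhibition is given as GI50.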 The source made the active and inactive calls. No stated cut-off is given here; in the data, active = GI50 up to about 1.1 µM and inactive = higher.
Experiments:
Assay in all cases: NCI tumour cell line growth inhibition, 48 h
K562 = tested on: K562
MOLT-4 = tested on: MOLT-4
NCI-H23 = tested on: NCI-H23
OVCAR-5 = tested on: OVCAR-5
SF-539 = tested on: SF-539
NCI-H522 = tested on: NCI-H522
SNB-19 = tested on: SNB-19
SF-268 = tested on: SF-268
SK-MEL-2 = tested on: SK-MEL-2
SW-620 = tested on: SW-620
SF-295 = tested on: SF-295
SN12C = tested on: SN12C
Malme-3M = tested on: Malme-3M
COLO 205 = tested on: COLO 205
NCI-H226 = tested on: NCI-H226
CAKI-1 = tested on: CAKI-1
HOP-62 = tested on: HOP-62
M14 = tested on: M14
SNB-75 = tested on: SNB-75
HOP-92 = tested on: HOP-92

Measured: GI50

O=C(N/N=C/C=C/c1ccccc1)[C@H](O)[C@@H](O)C(=O)N/N=C/C=C/c1ccccc1
inactive: K562 > 100 µM | MOLT-4 > 100 µM | NCI-H23 > 100 µM | OVCAR-5 > 100 µM | SF-539 > 100 µM | NCI-H522 > 100 µM | SNB-19 > 100 µM | SF-268 > 100 µM | SK-MEL-2 > 100 µM | SW-620 > 100 µM | SF-295 > 100 µM | SN12C > 100 µM | Malme-3M > 100 µM | COLO 205 > 100 µM

CCN(CC)C(=O)c1cc(OC(C)C)ccc1-c1c(C)cc(OC(C)C)c(OC)c1OC
inactive: K562 44.2 µM | NCI-H226 98.2 µM | CAKI-1 84.5 µM | MOLT-4 25.5 µM | NCI-H23 60 µM | OVCAR-5 > 100 µM | SF-539 92 µM | HOP-62 > 100 µM | NCI-H522 40 µM | SNB-19 79.1 µM | SF-268 > 100 µM | SK-MEL-2 46.7 µM | SW-620 98.4 µM | M14 79.4 µM | SN12C 61.4 µM | Malme-3M 44 µM | COLO 205 63.7 µM

COc1cc(C2C(=O)C(Cl)N2Nc2nc(C)cc(O)n2)cc(OC)c1OC (stereo not drawn)
inactive: K562 9.55 µM | NCI-H226 22.1 µM | MOLT-4 10.6 µM | NCI-H23 15.4 µM | OVCAR-5 33 µM | SNB-75 2.33 µM | SF-539 13.5 µM | HOP-62 7.21 µM | SNB-19 30.4 µM | SF-268 7.01 µM | HOP-92 16.9 µM | SK-MEL-2 11.2 µM | SW-620 22.2 µM | M14 12.5 µM | SN12C 14.7 µM | COLO 205 > 10 µM

CC(SC(=S)N1CCOCC1)C(=O)Nc1nnc(-c2ccc(Cl)cc2)o1 (stereo not drawn)
inactive: NCI-H226 67.8 µM | MOLT-4 16.1 µM | NCI-H23 50.2 µM | OVCAR-5 48.6 µM | SNB-75 > 100 µM | SF-539 74.5 µM | HOP-62 52 µM | SNB-19 40 µM | SF-268 44.3 µM | HOP-92 > 100 µM | SK-MEL-2 31.8 µM | SW-620 42.6 µM | M14 36 µM | SN12C 36.1 µM | Malme-3M > 100 µM | COLO 205 38.4 µM

Cc1[nH]c2ncn(/N=C/c3ccccc3O)c(=N)c2c1Cc1ccccc1
inactive: K562 11.3 µM | NCI-H226 75.5 µM | CAKI-1 46.1 µM | MOLT-4 30.8 µM | NCI-H23 50.6 µM | OVCAR-5 > 100 µM | SNB-75 91 µM | SF-539 30 µM | HOP-62 > 100 µM | SNB-19 > 100 µM | SF-268 75.2 µM | HOP-92 > 100 µM | SK-MEL-2 23.3 µM | SW-620 32.2 µM | SF-295 58.6 µM | M14 58.6 µM | SN12C 67 µM | COLO 205 > 100 µM

O=C1CCC(c2ccccc2)=NN1c1nsc2ccccc12
inactive: K562 74 µM | MOLT-4 60 µM | NCI-H23 > 100 µM | OVCAR-5 > 100 µM | SNB-75 7.21 µM | SF-539 > 100 µM | HOP-62 > 100 µM | SNB-19 > 100 µM | SF-268 > 100 µM | HOP-92 > 100 µM | SK-MEL-2 > 100 µM | SW-620 > 100 µM | M14 > 100 µM | SN12C > 100 µM | COLO 205 > 100 µM

Cc1nnc(Nc2ccc(Cl)cc2)o1
inactive: K562 > 10 µM | NCI-H226 > 10 µM | CAKI-1 > 10 µM | NCI-H23 > 10 µM | SNB-75 > 10 µM | SF-539 > 10 µM | HOP-62 > 10 µM | NCI-H522 > 10 µM | SNB-19 > 10 µM | SF-268 > 10 µM | SK-MEL-2 > 10 µM | SW-620 > 10 µM | SF-295 > 10 µM | M14 > 10 µM | SN12C > 10 µM | Malme-3M > 10 µM | COLO 205 > 10 µM

Reference: ChEMBL document CHEMBL1201862, “PubChem BioAssay data set” (2004)
